Test results: PubChem BioAssay AID1996
In brackets after ≈: the same amount, converted by molar mass.

Conditions: buffer; pH 7.4; 200.0 µM

| SMILES | solubility kinetic [µg/mL] |
| --- | --- |
| CCNC(=S)NCCC1=c2ccccc2=N/C1=C\c1c(O)n(C)c(=O)n(C)c1=O | 19.3 (≈ 46.7 µM) |
| CSc1ccccc1NC(=O)Cc1ccccc1 | > 38.6 |
| O=C1NCCN1CCN1C(=O)c2ccccc2NC1c1ccccc1 (configuration not stated) | > 50.5 |
| CNC(=S)N(CCO)Cc1cc2cc3c(cc2[nH]c1=O)OCO3 | 19.6 (≈ 58.4 µM) |
| Cc1oc(-c2cccc(Br)c2)[n+]([O-])c1C | > 40.2 |
| CC(C)N(Cc1ccccc1)C(=O)COc1ccccc1 | 36.6 (≈ 129 µM) |
| CCCNC(=O)c1ccccc1SCc1c(C)noc1C | > 45.7 |
| CCC(C(=O)Nc1ccsc1C(=O)OC)c1ccccc1 (configuration not stated) | 5.8 (≈ 19.1 µM) |
| O=C1CN(C(=O)/C=C/c2cc(Br)ccc2F)CCN1 | > 49.1 |
| Cc1nc([N+](=O)[O-])cn1Cc1cccc2ccccc12 | 2.5 (≈ 9.35 µM) |
| COCCn1cc(-c2csc(N)n2)c2ccccc21 | 35.1 (≈ 128 µM) |
| Cc1ccc(C(=O)NC2CC(C)(C)NC(C)(C)C2)cc1 | 40.2 (≈ 146 µM) |
| CCC(C(=O)NCc1ccc(C)cc1)c1ccccc1 (configuration not stated) | 20.2 (≈ 75.6 µM) |
| Cc1cc(C)c2c(n1)sc1c(N3CCN(C)CC3)ncnc12 | 39.6 (≈ 126 µM) |
| O=C(CCc1nc(-c2ccc(F)cc2)no1)Nc1cccc(C(=O)NC2CC2)c1 | 9.7 (≈ 24.6 µM) |
| Cc1ccc(C(=O)NCC(=O)NC2CCC(C)CC2)s1 (configuration not stated) | 7.6 (≈ 25.8 µM) |
| O=c1cccc2n1CC1CNCC2C1 (configuration not stated) | > 28.5 |
| CN(C(=O)COC(=O)Cc1ccccc1[N+](=O)[O-])C1CCS(=O)(=O)C1 (configuration not stated) | > 55.6 |
| COC(=O)c1cc(Cl)c(NC(=O)Cc2ccccc2)cc1OC | 25.6 (≈ 76.7 µM) |
| O=C1OC(c2ccccc2)=N/C1=C\C=C\c1ccco1 | 2 (≈ 7.54 µM) |
| O=C(COC(=O)c1ccco1)Nc1cc(S(=O)(=O)N2CCOCC2)ccc1Cl | 16.4 (≈ 38.2 µM) |
| CC(=O)N/C(=N/c1nc(C)cc(C)n1)Nc1cccc(C)c1C | 4.9 (≈ 15.7 µM) |
| COc1ccc(NC(=O)CSc2ccccn2)c([N+](=O)[O-])c1 | 7.3 (≈ 22.9 µM) |
| O=C(Nc1cccc(C(=O)Nc2ccccc2C(=O)O)c1)c1cccc(Cl)c1 | > 59.2 |
| COc1cc2c(cc1OC)C(NC(=O)C(F)(F)F)C/C2=N\O (configuration not stated) | > 47.7 |

| SMILES | solubility kinetic [µg/mL] |
| --- | --- |
| COc1ccccc1CNc1ncccc1[N+](=O)[O-] | 1.3 (≈ 5.01 µM) |
| Cc1cc(SCc2c(F)cccc2Cl)nc(=O)[nH]1 | 39.2 (≈ 138 µM) |
| OC(c1ccccc1)c1nc2ccccc2[nH]1 (configuration not stated) | > 33.6 |
| CCOC(=O)c1cnc(SCC#N)nc1N | > 35.7 |
| O=C(COC(=O)c1ccc(Cl)nc1)Nc1ccc(N2CCCCC2)cc1 | 10.9 (≈ 29.2 µM) |
| COC(=O)c1ccc(NC(=S)NCCCN2CCCC2=O)cc1 | > 50.3 |
| O=[N+]([O-])c1ccccc1S(=O)(=O)NCCSCc1ccco1 | 51 (≈ 149 µM) |
| CCC(=O)N(Cc1cc(=O)[nH]c2ccccc12)c1ccccc1 | > 46 |
| COc1ccc(CCNC(=O)/C=C/c2ccco2)cc1 | 38.9 (≈ 143 µM) |
| Cl.Oc1cccc(Nc2c3ccccc3nc3ccccc23)c1 | 0.7 |
| O=C(Nc1ccc(Cl)c(Cl)c1)c1ccco1 | 8.5 (≈ 33.2 µM) |
| CN(C(=O)COC(=O)Cn1cnc2ccccc21)C1CCCCC1 | 45 (≈ 137 µM) |
| COc1nc2c(c(-c3cc(Br)cs3)c1C#N)Cc1ccccc1-2 | < 0.4 |
| CN(C)CC/C=C1\c2ccccc2Sc2cc(F)c(Cl)cc21.Cl | 43 |
| c1ccc(CCNc2nc(-c3ccccn3)nc3ccccc23)cc1 | 31.4 (≈ 96.2 µM) |
| CNC(=O)Nc1ccc(C2SCCS2)cc1 | 19.9 (≈ 78.2 µM) |
| O=c1c2[nH]cnc2n(-c2ccccc2)c(=O)n1Cc1ccccc1 | 35.1 (≈ 110 µM) |
| O=C(CSc1ncccn1)N1CCCC1 | > 33.5 |
| O=C(NCC1CCCO1)C1CC(=O)N(c2ccccc2)C1 (configuration not stated) | > 43.3 |
| Cc1cc(C(=O)OCC(=O)Nc2ccccc2)c(C)o1 | 20 (≈ 73.2 µM) |
| CCSC1=NCCN1C(=O)c1c(-c2ccccc2Cl)noc1C | > 52.5 |
| Cn1cccc1/C=C1\SC(=Nc2cccc(O)c2)NC1=O | 5.6 (≈ 18.7 µM) |
| N#Cc1ccccc1S(=O)(=O)N1CCN(C(=O)C2CCCC2)CC1 | > 52.1 |
| CC1CCCN(C(=O)COC(=O)C2=COCCO2)C1 (configuration not stated) | > 40.4 |
| O=C1COc2ccc(S(=O)(=O)N3CCCCC3)cc2N1 | 43.3 (≈ 146 µM) |

| SMILES | solubility kinetic [µg/mL] |
| --- | --- |
| Cc1ccc(C(=O)NC2=NCCS2)cc1 | 32.9 (≈ 149 µM) |
| CC1CCCC(C)N1C(=O)CSc1nccc(=O)[nH]1 (configuration not stated) | 29.3 (≈ 104 µM) |
| Cc1ccccc1NC(=O)COc1ccccc1C | 2.1 (≈ 8.23 µM) |
| Cn1ccnc1SCC(=O)N1CCc2ccccc21 | 38.9 (≈ 142 µM) |
| O=C(Nc1cccnc1)c1ccc(Cl)c(Cl)c1 | 40 (≈ 150 µM) |
| Cc1csc(SCC(=O)NC(C)c2ccccc2)n1 (configuration not stated) | > 43.9 |
| O=C(/C=C/c1ccco1)NCC1OCCc2ccccc21 (configuration not stated) | 41.5 (≈ 146 µM) |
| O=C(COC(=O)CCC(=O)c1ccc(F)cc1)NC1CCCCC1 | > 50.3 |
| O=C(NCc1ccco1)c1ccc([N+](=O)[O-])cc1Cl | 40 (≈ 143 µM) |
| O=c1oc2ccccc2c(N2CCOCC2)c1[N+](=O)[O-] | > 41.4 |
| COc1ccc(-n2c(-c3ccc(Cl)cc3)c[nH]c2=S)cc1 | 1.5 (≈ 4.73 µM) |
| Cc1nc(/C(=N/O)C(N)=O)cs1 | > 27.8 |
| O=C(Nc1ccc(SC(F)F)cc1)c1ccc(F)cc1 | 1.3 (≈ 4.37 µM) |
| O=C(Nc1ccc(Nc2ccccc2)cc1)c1ccccc1F | 1.5 (≈ 4.9 µM) |
| CCOc1ncccc1C(=O)NCc1ccccc1Cl | 33.1 (≈ 114 µM) |
| COc1ccc2cc(C#N)c(SCC(=O)Nc3nonc3C)nc2c1 | 3.4 (≈ 9.57 µM) |
| COc1ccc(NC(=O)N2CCCCCC2)c(OC)c1 | > 41.8 |
| O=C(NCCCn1ccnc1)c1ccc2ccccc2c1 | 34.8 (≈ 125 µM) |
| Nc1ccc(Sc2nc3ccccc3[nH]2)cc1 | > 36.2 |
| COC(=O)c1ccc(CNC(=O)CSc2nc3ccccc3[nH]2)cc1 | 11.6 (≈ 32.6 µM) |
| CC(C)(C)C(=O)OCc1nc(-c2ccc(F)cc2)cs1 | < 0.6 |
| CC(=O)Nc1ccc(S(=O)(=O)N2CCN3CCCC3C2)cc1 (configuration not stated) | > 48.5 |
| O=C(Nc1nc2ccccc2s1)NC1CCCCC1 | 1.6 (≈ 5.81 µM) |
| O=[N+]([O-])c1ccc(C(=S)N2CCCC2)cc1 | > 35.4 |
| COc1ccc(CCNC(=O)c2c(C)nc3ccccn23)cc1OC | > 50.9 |

| SMILES | solubility kinetic [µg/mL] |
| --- | --- |
| COc1cccc(CNc2ccc3c(c2)nc(C)n3C)c1OC | 44.8 (≈ 144 µM) |
| CNCc1ccccc1OCc1ccccc1F.Cl | > 42.3 |
| Cc1ccc(C(=O)NC(C(=O)NC2CCCC2)c2ccccc2)cc1 (configuration not stated) | 4.1 (≈ 12.2 µM) |
| Cc1ccc(N2C(=O)C(Cl)=C(N3CCCCCC3)C2=O)cc1 | 10.6 (≈ 33.2 µM) |
| O=[N+]([O-])c1ccc(O)c(Nc2c([N+](=O)[O-])ccc3nonc23)c1 | > 47.6 |
| C[C@H](NC(=O)N1CCC(Cc2ccccc2)CC1)C(=O)O | > 43.6 |
| Cl.Nc1nc(N2CCN(c3ccccn3)CC2)nc2ccccc12 | 54.8 |
| CC1CCCC(C)N1C(=O)COC(=O)c1nn(C)c(=O)c2ccccc12 (configuration not stated) | > 53.6 |
| Cc1cc(C)c(OCCCCCn2ccnc2)c(C)c1 | > 40.9 |
| COc1cc(CNC(C)(C)C)ccc1OCC(=O)NC(C)(C)C | > 48.4 |
| Cn1cnc([N+](=O)[O-])c1Sc1nc2ccccc2[nH]1 | 5.1 (≈ 18.5 µM) |
| CCc1sc(C(=O)Nc2nc(-c3ccccn3)cs2)cc1C | 2.9 (≈ 8.8 µM) |
| CCN(CC)CCNC(=O)Cn1ncc2ccccc2c1=O | > 45.4 |
| O=[N+]([O-])c1ccccc1S(=O)(=O)N/C(=N/S(=O)(=O)c1ccccc1)c1ccccc1 | > 66.8 |
| CCCOc1ccc(C(=O)OCCN2CCCCC2)c(O)c1.Cl | 49.8 |
| O=C(C1CCCC1)N1CCN(S(=O)(=O)c2cccc(Cl)c2Cl)CC1 | 27.4 (≈ 70 µM) |
| O=C(NCc1ccccc1)Nc1cccc2ccccc12 | 0.6 (≈ 2.17 µM) |
| O=c1[nH]c2cc(S(=O)(=O)CCO)ccc2o1 | 32.4 (≈ 133 µM) |
| CNC(=O)c1c(NC(=O)c2ccco2)sc2c1CCC2 | 3.3 (≈ 11.4 µM) |
| Cc1ccc(NC(=O)CNC(=O)c2ccco2)nc1 | > 38.9 |
| CCOC(=O)COn1c(=O)c(-c2ccc(OC)cc2)[n+]([O-])c2ccccc21 | 42 (≈ 113 µM) |
| COCc1c(C(=O)N2CCN(c3ccccc3C)CC2)oc2ccccc12 | 9.2 (≈ 25.2 µM) |
| O=C(NCc1ccc2c(c1)OCO2)Nc1ccc(F)cc1 | 3.1 (≈ 10.8 µM) |
| COc1cc(CN2CCN(CC3CC3)CC2CCO)cc(OC)c1 (configuration not stated) | 42.6 (≈ 127 µM) |
| Cc1ccc(S(=O)(=O)N2CCC(C(=O)Nc3cccnc3)CC2)cc1 | > 53.9 |

| SMILES | solubility kinetic [µg/mL] |
| --- | --- |
| Cc1ccc(S(=O)(=O)CC(=O)NCc2ccccc2)cc1 | 29.7 (≈ 97.9 µM) |
| CCCCCc1c(O)nc(SCCN(CC)CC)[nH]c1=O.Cl | > 52.5 |
| O=C(NC1CCCCC1)[C@@H]1CSC2c3ccccc3C(=O)N21 (some centres not stated) | 47 (≈ 149 µM) |
| Cc1ccc(S(=O)(=O)N2CCC3(CC2)OCCO3)s1 | > 45.5 |
| Cc1cccc(NC(=O)NC2CCCCCCC2)c1 | 5.2 (≈ 20 µM) |
| CCCN1CNC(=S)N(c2ccccc2C)C1 | > 37.4 |
| O=C(NCc1ccccc1)c1cc2ccccc2oc1=O | 2.7 (≈ 9.67 µM) |
| CCOc1ccc2nc(NCCNC(=O)C(C)(C)C)c(C)cc2c1 | 47.1 (≈ 143 µM) |
| S=C(NCc1ccccc1)Nc1ccc(Oc2ccccc2)cc1 | 6.8 (≈ 20.3 µM) |
| COc1cc(CN2CCc3c([nH]c4ccccc34)C2)cc(OC)c1 | 26 (≈ 80.6 µM) |
| COC(=O)c1ccc(OCC(=O)NC2CCCCCC2)cc1 | > 45.8 |
| CCC1(C)Cc2c(C#N)c(N)n(-c3ccccc3)c(=S)c2CO1 (configuration not stated) | 26.4 (≈ 81.1 µM) |
| O=C(NC1CCN(Cc2ccccc2)CC1)c1ccc2c(c1)OCCCO2 | 51.6 (≈ 141 µM) |
| C=CCNc1nc(Cl)nc(NCc2ccco2)n1 | 1.9 (≈ 7.15 µM) |
| CC(C)(C)c1ccc(/C=C/C(=O)NCCCN2CCOCC2)cc1 | 32.3 (≈ 97.7 µM) |
| N#Cc1ccccc1OCC(=O)NC(=O)NC1CCS(=O)(=O)C1 (configuration not stated) | > 50.6 |
| NC(=O)c1ccsc1NC(=O)CSc1ncnc2sccc12 | 6 (≈ 17.1 µM) |
| COc1ccc(C(=O)NC2CC(C)(C)NC(C)(C)C2)cc1OC | > 48.1 |
| COc1ccc(Nc2cc(Nc3ccc(OC)cc3)ncn2)cc1 | < 0.2 |
| COC(=O)c1ccccc1NC(=O)c1ccc2c(c1)CC(C)O2 (configuration not stated) | 2.4 (≈ 7.71 µM) |
| Cc1ccc(C(=O)OCC(=O)Nc2cccc(Cl)c2C)c(O)c1 | < 0.7 |
| CC(C)C(=O)N1CCN(c2ccccc2NC(=O)c2ccco2)CC1 | 48 (≈ 141 µM) |
